≈ marks a conversion by molar mass, not a printed value. Where “and” joins values, the source holds several entries; their conditions need not be identical. Identical values can stand only once. Entries after “also recorded” stand apart in the source; their conditions may differ.
How the values were obtained:
Assay type in all cases: physicochemical
[1] = Stability of the solid forms to phase transformation (overall finding); details: variety of conditions
[2] = DSC and thermomicroscopy of solid-state transformations
Procedure: A Nikon POH-2 polarized light compound microscope with 10× objective is employed to view specimens mounted dry between a glass microscope slide and a no. 11/2 Cover slip. The samples are heated from ambient through 250° C. in a Mettler FP-80 microfurnace controlled by a Mettler FP-8 microprocessor. The heating rates may vary from 5-20° C./minute. The hot-stage experiments may be videotaped (Sony T120-HG and PM VHS tape) with a Hitachi VK-C350 Color Video Camera and a Panasonic AG-6200 Video Cassette Recorder.
Differential scanning calorimetry (DSC) is used to monitor enthalpy changes as a function of temperature during a linear temperature increase. A DuPont 910 DSC interfaced to a TA Instruments TA2100 computer may be used. The scan rate is 5° C./minute, and the instrument is operated with a 50-80 cc/min dry nitrogen purge. Samples are encapsulated in hermetically sealed aluminum sample pans with a pressure rating of about 2 bar. In some experiments, the lids of the pans are perforated to permit the passage of moisture and other volatile components.
Because calorimetric samples are occasionally affected by residual moisture, samples are sometimes studied with different initial water activities. Samples are weighed into tared DSC pans, and the open pans are permitted to equilibrate for several days in chambers of constant relative humidity at 25±1° C. These chambers are prepared from saturated salt solutions at 53% RH and 75% RH. At the end of the equilibration period, the chambers are opened, and the lids are placed over the samples to prevent re-equilibration with the ambient atmosphere. The samples are removed from the chambers, and the pans are quickly crimped closed.
Detailed description of FIG. 8. […] The heating rate is 5° C./minute. (a.) The sample is encapsulated in a standard DSC pan. (b.) The sample is encapsulated in a hermetically sealed DSC pan. The profiles are offset along the ordinate axis for comparison.
Detailed description of FIG. 10. […] The heating rate was 5° C./minute. (a.) The sample was equilibrated at 53% RH and encapsulated in a standard DSC pan. (b.)The sample was equilibrated at 53% RH and encapsulated in a hermetically sealed DSC pan. (c.) The sample was equilibrated at 75% RH and encapsulated in a hermetically sealed DSC pan. The profiles were offset along the ordinate axis for comparison.

[3] = Solubility of the quinolone, Forms I and III, in ethyl acetate; details: 20° C, two values given
Procedure: Bulk drug samples are prepared by dissolving the material in mobile phase at a final concentration of approximately 0.25 to 0.5 mg/ml. For solubility experiments, 100 mcl aliquots of ethyl acetate solutions are withdrawn and placed directly into HPLC autosampler vials. A gentle stream of nitrogen gas is used to evaporate the solvent in the sample vials. The solids are reconstituted with 0.5 ml of HPLC mobile phase prior to analysis.
Solubilities are measured in ethyl acetate. Five to ten milligrams of bulk drug are placed into an amber autoinjector vial, and 3.0 ml of ethyl acetate are added. The vials are capped and shaken for intervals up to 24 hours at room temperature using a Burrell model BB wrist-action shaker. Aliquots are withdrawn from the supernate after centrifugation. The final sample is taken from a quiescent solution which had not been shaken since the 24 hour timepoint.
The solubilities of Forms I and III were determined in ethyl acetate at room temperature; the solubility data for each form was gathered simultaneously, to assure that each form's solubility was measured under identical conditions. Ethyl acetate was employed as an aprotic solvent yielding fairly low equilibrium solubilities of the quinolone; ethyl acetate has been used to evaluate the difference in free energy of polymorphic forms of an antinociceptive drug, as described by K. Raghavan et al., J. Pharm. Biomed. Anal. Vol.12 (6), pp. 777-785 (1994). Under the assumption that the solubilities in TABLE S are consistent with the dilute solution limit, we can use the following expression to calculate the difference in Gibbs free energy between Form I and Form III: [formula] where "sx " is the solubility of Form x in a sufficiently dilute solution, R is the gas constant, and T is the absolute temperature. Using the data in Table 1, we find that the Gibbs free energy of Form III is lower than that of Form I by 7.7±0.2 kJ/mole.

[4] = Dynamic moisture sorption gravimetry (controlled atmosphere microbalance, 25° C)
Procedure: Dynamic Moisture Sorption Gravimetry
Dynamic moisture uptake is studied on the controlled atmosphere microbalance system at 25° C. About ten mg of sample are equilibrated on the balance for about 2 hours at 2.5% RH. The relative humidity surrounding the sample is increased in increments of 3% RH up to about 92% RH, at which point the RH is decremented in 3% steps to a final RH of about 2.5%. At each relative humidity, the sample is allowed to equilibrate until the mass is stable within 0.0005 mg over a ten minute period. The dry mass is assumed to correspond to the mass of the sample after the initial equilibration period. A controlled atmosphere microbalance is a balance system described by Bergren, M.S. Int. J. Pharm. (1994) Vol. 103, pp. 103-114.
(§1) Detailed description of FIG. 2. […] The ordinate represents the mass change relative to the lowest mass measurement. The abscissa is relative humidity. The circles represent points recorded after sequential increases in the relative humidity and the squares were recorded after decreases in the relative humidity. The horizontal line in the middle of the plot corresponds to the water content of the hypothetical monohydrate of the quinolone.
as §1, with “6.” for “2.”

[5] = Enthalpies of solution (solution calorimetry); details: Form III grown directly from solution
Procedure: The enthalpies of solution are determined in 50 mL of 0.1 M HCl at 25.0±0.05° C. Samples (0.10-0.11 g ) are weighed in 2 ml spherical, soft glass ampules and dried overnight in an evacuated desiccator over P2 O5. The ampules are removed, capped, weighed, and flame sealed. The enthalpies of solution are measured on a Tronac model 458 isoperibol solution calorimeter. The calorimetric accuracy of this instrument is within 1% based on calibration with tris(hydroxymethyl)-aminomethane (TRIS) in 0.1 N HCl.

[6] = Isothermal calorimetry (ITC) of Form I to Form III conversion; details: after ITC at 40° C
Procedure: Isothermal calorimetry (ITC) experiments are conducted using a model 2277 microcalorimeter made by ThermoMetric (see Suurkuusk, J.:Wadso, I. Chem. Scr. (1982) Vol. 20 pp. 155-163). The Digitam® version 2.1 software from Thermometric is used to display the data and to integrate the total heat obtained from the samples. Heat flow is monitored as a function of time at 60° C. and at 40° C. Both glass and stainless steel ampules are used to hold the solid samples and the reference material (quartz sand). Samples are thermally equilibrated for a period ranging from 15 minutes (glass ampules) to 1 hour (stainless steel ampules) prior to recording thermal data. The weight of the samples ranged from about 75 to 300 mg. Samples in glass ampules are equilibrated via the isopiestic method at 53% or 75% RH in chambers containing saturated solutions of sodium chloride or calcium nitrate tetrahydrate. The ampules are capped immediately after removing the samples. Other samples are equilibrated using "microhygrostats" containing small quantities of saturated salt solutions which are sealed within the ampules. This arrangement provided for nearly constant relative humidity as the crystal conversion proceeded.
We therefore studied the transformation of samples after equilibration at […] and 75% RH. […] HPLC analysis of the reaction product confirmed that the 60° C. ITC profiles contained negligible contributions from chemical decomposition.
A detailed explanation of FIG. 9 follows. […] Trace (a) is recorded from a sample of Form I equilibrated to 75% relative humidity before sealing the sample container and exposing it to the 60° C. conditions in the calorimeter. Trace (b) is recorded for a sample of Form I at 60° C., but a 75% relative humidity "microhygrostat" is placed in the sample container just prior to recording the data. The conversion is delayed from that of trace (a) due to the fact that the water must be transported from the microhygrostat to the Form I crystals during the experiment. Trace (c) is recorded for a sample of Form I at 60° C., but the sample was equilibrated at 53% relative humidity prior to sealing the sample container.
This trace results from placing a 75% relative humidity microhygrostat into the sample container just prior to recording the data. The sample is held at 40° C. in the calorimeter; the heat flow results as the Form I material converts to Form III.

Structure (SMILES): CN[C@@H](C)[C@@H]1CCN(c2c(F)cc3c(=O)c(C(=O)O)cn(C4CC4)c3c2OC)C1 [Form II, [S-(R*,S*)]-1-cyclopropyl-6-fluoro-1,4-dihydro-8-methoxy-7-[3-[1-(methylamino)ethyl]-1-pyrrolidinyl]-4-oxo-3-quinolinecarboxylic acid]
- Stability to transformation (in words) [1]: undergo phase transformations under a variety of conditions
- Temperature of Form II to Form III transformation ([2]; melt/recrystallization): 166-171 °C

Structure (SMILES): CN[C@@H](C)[C@@H]1CCN(c2c(F)cc3c(=O)c(C(=O)O)cn(C4CC4)c3c2OC)C1 [Form III, [S-(R*,S*)]-1-cyclopropyl-6-fluoro-1,4-dihydro-8-methoxy-7-[3-[1-(methylamino)ethyl]-1-pyrrolidinyl]-4-oxo-3-quinolinecarboxylic acid]
- Stability to transformation (in words) [1]: stable to transformation
- Solubility, concentration ([3]; 1 hour, 60 min): 60 µg/mL and 90 µg/mL
- Solubility, concentration ([3]; 2 hours, 120 min): 110 µg/mL (≈ 273 µM)
- Solubility, concentration ([3]; 4.5 hours, 270 min): 120 µg/mL (≈ 297 µM)
- Solubility, concentration ([3]; 18 hours, 1080 min): 140 µg/mL (≈ 347 µM)
- Solubility, concentration ([3]; 24 hours, 1440 min): 150 µg/mL (≈ 372 µM)
- Solubility, concentration ([3]; 67.5 hours (not shaken after 24 hours), 4050 min): 140 µg/mL (≈ 347 µM)
- Moisture sorption behaviour (in words) ([4]; 25° C, sorption/desorption): sorbs less moisture than Form I at all relative humidities; also recorded: very little hysteresis between the sorption and desorption profiles, and the sample exhibited no evidence of recrystallization and/or hydrate Formation
- Moisture adsorbed ([4]; throughout the entire RH range): less than 0.5%
- Enthalpy of fusion ([2]; DSC): approximately 150 J/g
- Enthalpy of Form III lower than Form I by [5]: about 8.8 kJ/mole
- Moisture content of recovered Form III crystals [6]: 0.61%

Structure (SMILES): CN[C@@H](C)[C@@H]1CCN(c2c(F)cc3c(=O)c(C(=O)O)cn(C4CC4)c3c2OC)C1 [Form MS, [S-(R*,S*)]-1-cyclopropyl-6-fluoro-1,4-dihydro-8-methoxy-7-[3-[1-(methylamino)ethyl]-1-pyrrolidinyl]-4-oxo-3-quinolinecarboxylic acid]
- Stability to transformation (in words) [1]: undergo phase transformations under a variety of conditions
- Stability to transformation (in words) ([1]; listed as methanolate): desolvates to yield Form I under such mild conditions that solvent is not normally retained in the product crystals
